In ChEMBL document CHEMBL3045349, “A comparative study on the interference of two herbicides in wheat and italian ryegrass and on their antioxidant activities and detoxification rates” (J Agric Food Chem, 2011):

How the values were obtained:
Lolium multiflorum [1] = experiment: Effect on antioxidant enzyme system in Lolium multiflorum (Italian ryegrass) shoots assessed as dehydroascorbate reductase activity per mg protein compound administered at rate of 14 mf/flat measured 24 hr post treatment (reference value: 3.9 nmol/s per mg protein); assay type: functional
Triticum aestivum [2] = experiment: Effect on antioxidant enzyme system in Triticum aestivum (wheat) shoots assessed as catalase activity per mg protein compound administered at rate of 14 mf/flat measured 72 hr post treatment (reference value: 0.13 nmol/s per mg protein); assay type: functional
Shoot [3] = experiment: Drug level in Lolium multiflorum (Italian ryegrass) shoots compound administered at rate of 14 mf/flat measured 72 hr post treatment by HPLC; assay type: ADME
Lolium multiflorum [4] = experiment: Effect on photosynthetic activity in Lolium multiflorum (Italian ryegrass) shoots assessed as leaf net photosynthesis rate measured by CO2 production compound administered at rate of 14 mf/flat measured 72 hr post treatment (reference value: 4.45 umol/m2/s); assay type: functional
Triticum aestivum [5] = experiment: Effect on antioxidant enzyme system in Triticum aestivum (wheat) shoots assessed as ascorbate peroxidase activity per mg protein compound administered at rate of 14 mf/flat measured 24 hr post treatment (reference value: 15.7 nmol/s per mg protein); assay type: functional
Shoot [6] = experiment: Drug level in Lolium multiflorum (Italian ryegrass) shoots compound administered at rate of 14 mf/flat measured 96 hr post treatment by HPLC; assay type: ADME
Shoot [7] = experiment: Drug level in Lolium multiflorum (Italian ryegrass) shoots compound administered at rate of 14 mf/flat measured 144 hr post treatment by HPLC; assay type: ADME
Triticum aestivum [8] = experiment: Increase in antioxidant enzyme system in Triticum aestivum (wheat) shoots assessed as increase in dehydroascorbate reductase activity compound administered at rate of 14 mf/flat measured 72 hr post treatment; assay type: functional
Lolium multiflorum [9] = experiment: Effect on antioxidant enzyme system in Lolium multiflorum (Italian ryegrass) shoots assessed as glutathione S-transferase activity per mg protein compound administered at rate of 14 mf/flat measured 48 hr post treatment (reference value: 0.35 nmol/s per mg protein); assay type: functional
Lolium multiflorum [10] = experiment: Effect on MDA content in Lolium multiflorum (Italian ryegrass) shoots compound administered at rate of 14 mf/flat measured 24 hr post treatment (reference value: 0.68 uM/L); assay type: functional
Triticum aestivum [11] = experiment: Effect on photosynthetic activity in Triticum aestivum (wheat) shoots assessed as dark respiration rate measured by CO2 production compound administered at rate of 14 mf/flat measured 24 hr post treatment (reference value: -1.35 umol/m2/s); assay type: functional
Triticum aestivum [12] = experiment: Increase in antioxidant enzyme system in Triticum aestivum (wheat) shoots assessed as increase in glutathione reductase activity compound administered at rate of 14 mf/flat measured 24 hr post treatment; assay type: functional
Triticum aestivum [13] = experiment: Effect on antioxidant enzyme system in Triticum aestivum (wheat) shoots assessed as ascorbate peroxidase activity per mg protein compound administered at rate of 14 mf/flat measured 48 hr post treatment (reference value: 18.4 nmol/s per mg protein); assay type: functional
Shoot [14] = experiment: Drug level in Lolium multiflorum (Italian ryegrass) shoots compound administered at rate of 14 mf/flat measured 24 hr post treatment by HPLC; assay type: ADME
Lolium multiflorum [15] = experiment: Effect on photosynthetic activity in Lolium multiflorum (Italian ryegrass) shoots assessed as dark respiration rate measured by CO2 production compound administered at rate of 14 mf/flat measured 72 hr post treatment (reference value: -1.32 umol/m2/s); assay type: functional
Lolium multiflorum [16] = experiment: Increase in glutathione S-transferase activity in Lolium multiflorum (Italian ryegrass) compound administered at rate of 14 mf/flat measured 72 hr post treatment; assay type: functional
Lolium multiflorum [17] = experiment: Increase in antioxidant enzyme system in Lolium multiflorum (Italian ryegrass) shoots assessed as increase in dehydroascorbate reductase activity compound administered at rate of 14 mf/flat measured 24 hr post treatment; assay type: functional
Lolium multiflorum [18] = experiment: Effect on photosynthetic activity in Lolium multiflorum (Italian ryegrass) shoots assessed as leaf net photosynthesis rate measured by CO2 production compound administered at rate of 14 mf/flat measured 24 hr post treatment (reference value: 4.55 umol/m2/s); assay type: functional
Lolium multiflorum [19] = experiment: Effect on antioxidant enzyme system in Lolium multiflorum (Italian ryegrass) shoots assessed as dehydroascorbate reductase activity per mg protein compound administered at rate of 14 mf/flat measured 48 hr post treatment (reference value: 3.7 nmol/s per mg protein); assay type: functional
Lolium multiflorum [20] = experiment: Effect on antioxidant enzyme system in Lolium multiflorum (Italian ryegrass) shoots assessed as glutathione S-transferase activity per mg protein compound administered at rate of 14 mf/flat measured 24 hr post treatment (reference value: 0.34 nmol/s per mg protein); assay type: functional
Shoot [21] = experiment: Drug level in Triticum aestivum (wheat) shoots compound administered at rate of 14 mf/flat measured 96 hr post treatment by HPLC; assay type: ADME
Triticum aestivum [22] = experiment: Effect on MDA content in Triticum aestivum (wheat) shoots compound administered at rate of 14 mf/flat measured 72 hr post treatment (reference value: 0.050 uM/L); assay type: functional
Lolium multiflorum [23] = experiment: Effect on antioxidant enzyme system in Lolium multiflorum (Italian ryegrass) shoots assessed as glutathione reductase activity per mg protein compound administered at rate of 14 mf/flat measured 24 hr post treatment (reference value: 1.1 nmol/s per mg protein); assay type: functional
Lolium multiflorum [24] = experiment: Drug level in Lolium multiflorum (Italian ryegrass) compound administered at rate of 14 mf/flat measured 24 hr post treatment by HPLC; assay type: ADME, organism-based; settings: in vivo
Lolium multiflorum [25] = experiment: Increase in MDA content in Lolium multiflorum (Italian ryegrass) shoots compound administered at rate of 14 mf/flat measured 72 hr post treatment; assay type: functional
Lolium multiflorum [26] = experiment: Increase in glutathione S-transferase activity in Lolium multiflorum (Italian ryegrass) compound administered at rate of 14 mf/flat measured 48 hr post treatment; assay type: functional
Triticum aestivum [27] = experiment: Effect on antioxidant enzyme system in Triticum aestivum (wheat) shoots assessed as glutathione S-transferase activity per mg protein compound administered at rate of 14 mf/flat measured […] post treatment (reference value: 2.4 nmol/s per mg protein); assay type: functional
Lolium multiflorum [28] = experiment: Effect on antioxidant enzyme system in Lolium multiflorum (Italian ryegrass) shoots assessed as glutathione reductase activity per mg protein compound administered at rate of 14 mf/flat measured 48 hr post treatment (reference value: 1.1 nmol/s per mg protein); assay type: functional
Shoot [29] = experiment: Drug level in Lolium multiflorum (Italian ryegrass) shoots compound administered at rate of 14 mf/flat measured 48 hr post treatment by HPLC; assay type: ADME
Triticum aestivum [30] = experiment: Effect on antioxidant enzyme system in Triticum aestivum (wheat) shoots assessed as dehydroascorbate reductase activity per mg protein compound administered at rate of 14 mf/flat measured 48 hr post treatment (reference value: 4.6 nmol/s per mg protein); assay type: functional
Shoot [31] = experiment: Drug level in Triticum aestivum (wheat) shoots compound administered at rate of 14 mf/flat measured 24 hr post treatment by HPLC; assay type: ADME
Lolium multiflorum [32] = experiment: Effect on antioxidant enzyme system in Lolium multiflorum (Italian ryegrass) shoots assessed as ascorbate peroxidase activity per mg protein compound administered at rate of 14 mf/flat measured 48 hr post treatment (reference value: 11.6 nmol/s per mg protein); assay type: functional
Triticum aestivum [33] = experiment: Effect on antioxidant enzyme system in Triticum aestivum (wheat) shoots assessed as catalase activity per mg protein compound administered at rate of 14 mf/flat measured 24 hr post treatment (reference value: 0.1 nmol/s per mg protein); assay type: functional

Structure (SMILES)	Activity (Lolium multiflorum [1]) [nmol/s/mg protein]	Activity (Triticum aestivum [2]) [nmol/s]	Drug uptake (Shoot [3]) [ppm]	Activity (Lolium multiflorum [4]) [micromol/m2/s]	Activity (Triticum aestivum [5]) [nmol/s/mg protein]	Drug uptake (Shoot [6]) [ppm]	Drug uptake (Shoot [7]) [ppm]	Activity (Triticum aestivum [8]) [%]	Activity (Lolium multiflorum [9]) [nmol/s/mg protein]	Activity (Lolium multiflorum [10]) [µM]	Activity (Triticum aestivum [11]) [micromol/m2/s]	Activity (Triticum aestivum [12]) [%]	Activity (Triticum aestivum [13]) [nmol/s/mg protein]	Drug uptake (Shoot [14]) [ppm]	Activity (Lolium multiflorum [15]) [micromol/m2/s]	Activity (Lolium multiflorum [16]) [%]	Activity (Lolium multiflorum [17]) [%]	Activity (Lolium multiflorum [18]) [micromol/m2/s]	Activity (Lolium multiflorum [19]) [nmol/s/mg protein]	Activity (Lolium multiflorum [20]) [nmol/s/mg protein]	also measured
O=[N+]([O-])c1ccc(Oc2ccc(C(F)(F)F)cc2[N+](=O)[O-])cc1 [FLUORODIFEN]	4.2	0.14	0.46	4.05	22.9	0.36	0.2	45	1.65	0.64	-0.82	36	20.2	1.4	-1.06	35	8	4.64	3.7	0.67	Drug uptake (Shoot [21]): 0.08 ppm; Activity (Triticum aestivum [22]): 0.049 µM; Activity (Lolium multiflorum [23]): 1.9 nmol/s/mg protein; Drug uptake (Lolium multiflorum [24]): 0.72 ppm; Activity (Lolium multiflorum [25]): 10%; Activity (Lolium multiflorum [26]): 371%; Activity (Triticum aestivum [27]): 2.3 nmol/s/mg protein; Activity (Lolium multiflorum [28]): 1 nmol/s/mg protein; Drug uptake (Shoot [29]): 1.17 ppm; Activity (Triticum aestivum [30]): 5.1 nmol/s/mg protein; Drug uptake (Shoot [31]): 1.64 ppm; Activity (Lolium multiflorum [32]): 14 nmol/s/mg protein; Activity (Triticum aestivum [33]): 0.11 nmol/s/mg protein
CCNc1nc(Cl)nc(NC(C)C)n1 [ATRAZINE]	4.5	0.12	4.52	-1.35	22	4.22	3.11	21	0.71	0.85	-0.51	36	23.5	6	-1.67	24	15	-0.61	3.6	0.46	Drug uptake (Shoot [21]): 1.94 ppm; Activity (Triticum aestivum [22]): 0.057 µM; Activity (Lolium multiflorum [23]): 1.4 nmol/s/mg protein; Drug uptake (Lolium multiflorum [24]): 4.75 ppm; Activity (Lolium multiflorum [25]): 10%; Activity (Lolium multiflorum [26]): 103%; Activity (Triticum aestivum [27]): 2.5 nmol/s/mg protein; Activity (Lolium multiflorum [28]): 1 nmol/s/mg protein; Drug uptake (Shoot [29]): 5.9 ppm; Activity (Triticum aestivum [30]): 5.3 nmol/s/mg protein; Drug uptake (Shoot [31]): 1.38 ppm; Activity (Lolium multiflorum [32]): 12.2 nmol/s/mg protein; Activity (Triticum aestivum [33]): 0.1 nmol/s/mg protein
